{"source": "patent US20080305054A1", "about": "“Use of Glycosylated Flavanones for the Browning of Skin or Hair” (SYMRISE GMBH & CO. KG, priority 2004, published 2008)", "key": {"[1]": {"assay": "Cytotoxicity determination (MTT)", "format": "cell-based, mouse", "conditions": "mouse, B16V mouse melanoma cells; Table 3, repeat of the Table 1 values; read-out: IC50 cytotox", "experimental": "(§1) B16V mouse melanoma cells are disseminated in a 96-well microtitre plate in a concentration of 2×10^4 cells/well (B16V). After cultivation for 24 h at 37° C. and 5% CO2 in RPMI medium (B16V cells), enriched with 10% foetal calf serum, the medium is drawn off. Various concentrations of the test substances, dissolved in fresh medium enriched with 5% foetal calf serum, are added and incubated for a further 48 h. In parallel the cells are incubated with SDS as standard in concentrations of 0.01 mM, 0.1 mM, 1 mM and 10 mM. After incubation the medium is drawn off and the cells are incubated for 2 h with MTT (3-[4,5-dimethylthiazol-2-yl]2,5-diphenyl tetrazolium bromide). After extraction of the dye (MTT) with acetic acid SDS in DMSO (10 min), the absorption (A) is measured at 570 nm.\n(§2) The mean and standard deviation of the controls, blanks and samples are calculated. The mean of the blank is subtracted from the means of the controls and samples. The viability of the cells is stated as a percentage relative to the controls (100%):\n(§3) Viability (%)=[(Atest compound/Acontrol)×100]\n(§4) The IC50 (mean inhibitory concentration) indicates the test substance concentration at which 50% of the cells are vital."}, "[2]": {"test_system": "B16V mouse melanoma cells", "assay": "Cytotoxicity determination (MTT)", "format": "cell-based", "conditions": "MTT viability, 48 h incubation, concentration at which 50% of the cells are vital", "experimental": "as §1, §2, §3, §4"}, "[3]": {"test_system": "B16V mouse melanoma cells", "assay": "Pigmenting effect (stimulation of pigmentation)", "format": "cell-based", "experimental": "mouse melanoma cells are disseminated in a 96-well microtitre plate in a concentration of 5×10^3 cells/well. After cultivation for 24 h at 37° C. and 5% CO2 in RPMI medium, enriched with 10% foetal calf serum, various concentrations of the test substances and 10 nM α-MSH (α-melanocyte stimulating hormone) are added and incubated for a further 96 h. […] The stimulation of pigmentation in the presence of the test compounds was calculated using the following equation: Stimulation of pigmentation (%)=[(A test compound/A control)×100]-100 From the stimulation of pigmentation (%) in a series of dilutions of test compounds, the EC50 for each test compound was calculated. This is the concentration of a test compound at which pigmentation is stimulated by 50%."}, "tyrosinase": {"test_system": "tyrosinase", "conditions": "of 27 flavonoids tested; cited from earlier work"}, "B16V melanoma cells [4]": {"test_system": "B16V melanoma cells", "conditions": "cited from earlier work"}, "glucose absorption": {"test_system": "glucose absorption", "conditions": "cited from earlier work"}, "B16V melanoma cells [5]": {"test_system": "B16V melanoma cells", "conditions": "cited from earlier work", "remark": "listed apart in the source"}, "male rats": {"test_system": "male rats", "conditions": "cited from earlier work"}, "melanoma cells [6]": {"test_system": "melanoma cells", "conditions": "cited from earlier work"}, "melanoma cells [7]": {"test_system": "melanoma cells", "conditions": "cited from earlier work", "remark": "listed apart in the source"}, "melanin synthesis": {"test_system": "melanin synthesis", "conditions": "cited from earlier work"}, "[8]": {"conditions": "96 h with 10 nM α-MSH, concentration at which pigmentation is stimulated by 50%, non-cytotoxic concentration range"}, "[9]": {"conditions": "Table 3, repeat of the Table 2 values"}, "[10]": {"conditions": "Mus musculus, 96 h, 96 h with 10 nM α-MSH, concentration at which pigmentation is stimulated by 50%, non-cytotoxic concentration range"}, "[11]": {"conditions": "Mus musculus, read-out: EC50 pigm. effect, Table 3, repeat of the Table 2 values"}}, "note": "Where two headings read alike, the source gives them in different places.", "data": [{"molecule": "O=c1cc(-c2ccc(O)cc2)oc2cc(O)cc(O)c12", "note": "[Apigenin]", "values": [{"measurement": "IC50 at 48 h", "setting": "[1]", "value": 33, "unit": "µM"}, {"measurement": "IC50", "setting": "[2]; Mus musculus, read-out: IC50", "value": 33, "unit": "µM"}, {"measurement": "EC50", "setting": "[3]; [8]", "value": "inactive"}, {"measurement": "EC50 pigm. effect", "setting": "[3]; [9]", "value": "inactive"}]}, {"molecule": "COc1ccc([C@@H]2CC(=O)c3c(O)cc(O)cc3O2)cc1O", "note": "[Hesperetin]", "values": [{"measurement": "IC50 at 48 h", "setting": "[1]", "value": 40, "unit": "µM"}, {"measurement": "IC50", "setting": "[2]; Mus musculus, read-out: IC50", "value": 40, "unit": "µM"}, {"measurement": "EC50", "setting": "[3]; [8]", "value": "inactive"}, {"measurement": "EC50 pigm. effect", "setting": "[3]; [9]", "value": "inactive"}]}, {"molecule": "COc1ccc([C@@H]2CC(=O)c3c(O)cc(O[C@@H]4O[C@H](CO[C@@H]5O[C@@H](C)[C@H](O)[C@@H](O)[C@H]5O)[C@@H](O)[C@H](O)[C@H]4O)cc3O2)cc1O", "note": "[Hesperidin]", "values": [{"measurement": "IC50 at 48 h", "setting": "[1]", "value": 1500, "unit": "µM"}, {"measurement": "IC50", "setting": "[2]; Mus musculus, 48 h", "value": "> 1000", "unit": "µM"}, {"measurement": "EC50", "setting": "[3]; [10]", "value": "< 2", "unit": "µM"}, {"measurement": "EC50", "setting": "[3]; [11]", "value": 1.5, "unit": "µM"}]}, {"molecule": "O=c1c(O)c(-c2ccc(O)cc2)oc2cc(O)cc(O)c12", "note": "[Kaempferol]", "values": [{"measurement": "IC50 at 48 h", "setting": "[1]", "value": 43, "unit": "µM"}, {"measurement": "IC50", "setting": "[2]; Mus musculus, read-out: IC50", "value": 43, "unit": "µM"}, {"measurement": "EC50", "setting": "[3]; [8]", "value": "inactive"}, {"measurement": "EC50 pigm. effect", "setting": "[3]; [9]", "value": "inactive"}, {"measurement": "tyrosinase inhibition", "setting": "tyrosinase", "value": "tyrosinase inhibition"}]}, {"molecule": "O=c1cc(-c2ccc(O)c(O)c2)oc2cc(O)cc(O)c12", "note": "[Luteolin]", "values": [{"measurement": "IC50 at 48 h", "setting": "[1]", "value": 37, "unit": "µM"}, {"measurement": "IC50", "setting": "[2]; Mus musculus, read-out: IC50", "value": 37, "unit": "µM"}, {"measurement": "EC50", "setting": "[3]; [8]", "value": "inactive"}, {"measurement": "EC50 pigm. effect", "setting": "[3]; [9]", "value": "inactive"}, {"measurement": "tyrosinase inhibition", "setting": "tyrosinase", "value": "tyrosinase inhibition"}]}, {"molecule": "O=C1C[C@@H](c2ccc(O)cc2)Oc2cc(O)cc(O)c21", "note": "[Naringenin]", "values": [{"measurement": "IC50 at 48 h", "setting": "[1]", "value": 30, "unit": "µM"}, {"measurement": "IC50", "setting": "[2]; Mus musculus, read-out: IC50", "value": 30, "unit": "µM"}, {"measurement": "EC50", "setting": "[3]; [8]", "value": "inactive"}, {"measurement": "EC50 pigm. effect", "setting": "[3]; [9]", "value": "inactive"}]}, {"molecule": "C[C@@H]1O[C@@H](O[C@H]2[C@H](Oc3cc(O)c4c(c3)OC(c3ccc(O)cc3)CC4=O)O[C@H](CO)[C@@H](O)[C@@H]2O)[C@H](O)[C@H](O)[C@H]1O", "note": "(stereo partly drawn) [Naringin]", "values": [{"measurement": "IC50 at 48 h", "setting": "[1]", "value": "> 10000", "unit": "µM"}, {"measurement": "IC50", "setting": "[2]", "value": "> 10000", "unit": "µM"}, {"measurement": "EC50", "setting": "[3]; [11]", "value": 0.5, "unit": "µM"}]}, {"molecule": "COc1ccc(C2CC(=O)c3c(O)cc(OC4OC(CO)C(O)C(O)C4OC4OC(C)C(O)C(O)C4O)cc3O2)cc1O", "note": "(stereo not drawn) [Neohesperidin]", "values": [{"measurement": "IC50 at 48 h", "setting": "[1]", "value": "> 4000", "unit": "µM"}, {"measurement": "IC50", "setting": "[2]", "value": "> 4000", "unit": "µM"}, {"measurement": "EC50", "setting": "[3]; [10]", "value": "< 2", "unit": "µM"}, {"measurement": "EC50", "setting": "[3]; [11]", "value": 1, "unit": "µM"}]}, {"molecule": "O=C(CCc1ccc(O)cc1)c1c(O)cc(O)cc1O[C@@H]1O[C@H](CO)[C@@H](O)[C@H](O)[C@H]1O", "note": "[Phloridzin]", "values": [{"measurement": "melanin relative to the untreated control", "setting": "B16V melanoma cells [4]; 1 mM", "value": "+81%"}, {"measurement": "inhibition of glucose absorption", "setting": "glucose absorption", "value": "inhibitor of glucose absorption"}, {"measurement": "toxicity to reproduction", "setting": "glucose absorption", "value": "toxic to reproduction"}, {"measurement": "cytotoxicity", "setting": "B16V melanoma cells [5]", "value": "no cytotoxicity"}]}, {"molecule": "O=c1c(O)c(-c2ccc(O)c(O)c2)oc2cc(O)cc(O)c12", "note": "[Quercetin]", "values": [{"measurement": "melanin relative to the untreated control", "setting": "B16V melanoma cells [4]; maximum non-cytotoxic concentration of 0.003 mM", "value": "+38%"}, {"measurement": "IC50 at 48 h", "setting": "[1]", "value": 48, "unit": "µM"}, {"measurement": "IC50", "setting": "[2]; Mus musculus, read-out: IC50", "value": 48, "unit": "µM"}, {"measurement": "EC50", "setting": "[3]; Mus musculus, 96 h with 10 nM α-MSH, concentration at which pigmentation is stimulated by 50%, non-cytotoxic concentration range, read-out: EC50", "value": 15, "unit": "µM"}, {"measurement": "EC50", "setting": "[3]; Mus musculus, Table 3, repeat of the Table 2 values, read-out: EC50 pigm. effect", "value": 15, "unit": "µM"}, {"measurement": "tyrosinase inhibition", "setting": "tyrosinase", "value": "tyrosinase inhibition"}, {"measurement": "maximum non-cytotoxic concentration", "setting": "B16V melanoma cells [5]", "value": 0.003, "unit": "mM"}, {"measurement": "hepatotoxic effect", "setting": "male rats", "value": "hepatotoxic effect"}]}, {"molecule": "OC[C@H]1O[C@@H](Oc2cc3c(O)cc(O)cc3[o+]c2-c2ccc(O)c(O)c2)[C@H](O)[C@@H](O)[C@@H]1O", "note": "[cyanidin-3-β-D-glucoside]", "values": [{"measurement": "effect on melanin synthesis", "setting": "melanoma cells [6]", "value": "stimulates melanin synthesis"}]}, {"molecule": "O=c1c(-c2ccc(O)cc2)coc2cc(O)ccc12", "note": "[daidzein]", "values": [{"measurement": "effect on melanin production / melanogenesis", "setting": "melanoma cells [7]", "value": "no effect on melanogenesis"}]}, {"molecule": "O=C(O[C@@H]1Cc2c(O)cc(O)cc2O[C@@H]1c1cc(O)c(O)c(O)c1)c1cc(O)c(O)c(O)c1", "note": "[epigallocatechin gallate]", "values": [{"measurement": "effect on melanin synthesis", "setting": "melanin synthesis", "value": "inhibition of melanin synthesis"}]}, {"molecule": "O=c1c(-c2ccc(O)cc2)coc2cc(O)cc(O)c12", "note": "[genistein]", "values": [{"measurement": "effect on melanin production / melanogenesis", "setting": "melanoma cells [7]", "value": "increases melanin production"}]}, {"molecule": "O=c1c(O)c(-c2ccc(O)cc2O)oc2cc(O)cc(O)c12", "note": "[morin]", "values": [{"measurement": "tyrosinase inhibition", "setting": "tyrosinase", "value": "tyrosinase inhibition"}]}, {"molecule": "O=c1c(O)c(-c2cc(O)c(O)c(O)c2)oc2cc(O)cc(O)c12", "note": "[myricetin]", "values": [{"measurement": "tyrosinase inhibition", "setting": "tyrosinase", "value": "tyrosinase inhibition"}]}, {"molecule": "O=C(CCc1ccc(O)cc1)c1c(O)cc(O)cc1O", "note": "[phloretin]", "values": [{"measurement": "effect on melanogenesis", "setting": "B16V melanoma cells [4]; non-cytotoxic concentrations", "value": "ineffective"}]}, {"molecule": "O=c1c(O)cc([C@H]2Oc3cc(O)cc(O)c3C[C@H]2O)cc2c([C@H]3Oc4cc(O)cc(O)c4C[C@H]3O)cc(O)c(O)c12", "note": "[theaflavin]", "values": [{"measurement": "tyrosinase inhibition", "setting": "tyrosinase", "value": "tyrosinase inhibition"}]}, {"molecule": "theaflavinmonogallate", "values": [{"measurement": "tyrosinase inhibition", "setting": "tyrosinase", "value": "tyrosinase inhibition"}]}]}
